Experiments:
Type in all cases: cell-based
[1] = tested on: 15 colorectal cancer cell lines; test: In vitro proliferation, summary over the cell line panel; details: single agents
Experimental: (§1) COMPOUNDS A, B, and C were dissolved in 100% DMSO (Sigma, Catalog number D2650) at concentrations of 20 mM and stored at −20° C. until use. Compounds were arrayed in drug master plates (Greiner, Catalog number 788876) and serially diluted 3-fold (7 steps) at 2000× concentration.
(§2) Colorectal cancer cell lines used for this study were obtained, cultured and processed from commercial vendors ATCC, CellBank Australia, DMSZ, ECACC, and HSRRB (Table 1). All cell line media were supplemented with 10% FBS (HyClone, Catalog number SH30071.03). Media for LIM2551 was additionally supplemented with 0.6 μg/mL Insulin (SIGMA, Catalog number 19278), 1 μg/mL Hydrocortisone (SIGMA, Catalog number H0135), and 10 μM 1-Thioglycerol (SIGMA, Catalog number M6145).
(§3) Cell lines were cultured in 37° C. and 5% CO2 incubator and expanded in T-75 flasks. In all cases cells were thawed from frozen stocks, expanded through ≥1 passage using 1:3 dilutions, counted and assessed for viability using a ViCell counter (Beckman-Coulter) prior to plating. To split and expand cell lines, cells were dislodged from flasks using 0.25% Trypsin-EDTA (GIBCO, Catalog number 25200). All cell lines were determined to be free of mycoplasma contamination as determined by a PCR detection methodology performed at Idexx Radil (Columbia, Mo., USA) and correctly identified by detection of a panel of SNPs.
To test the effect of the combination of COMPOUND A, COMPOUND B, and COMPOUND C on cell proliferation cells were plated in black 384-well microplates with clear bottom (Matrix/Thermo Scientific, Catalog number 4332) in 50 μL media per well at cell densities between 500 and 1250 cells/well (Table 1) and allowed to incubate at 37 degrees, 5% CO2 for 24 h. […] Caspase 3/7 induction was measured as a proxy for apoptosis induced by the treatments. Cells were treated for 72 h to 96 h depending on their doubling time (Table 1), and Caspase 3/7 activation was measured every 24 h by microscopy using an InCell Analyzer 2000 (GE Healthcare) equipped with a 4× objective and FITC excitation/emission filters. […]

OUMS-23 = test: In vitro proliferation (cell count by microscopy), single agents and combination; details: OUMS-23 (BRAF), 72 h treatment; 50% of cell counts relative to DMSO
Experimental: as §1, §2, §3
(§4) To test the effect of the combination of COMPOUND A, COMPOUND B, and COMPOUND C on cell proliferation cells were plated in black 384-well microplates with clear bottom (Matrix/Thermo Scientific, Catalog number 4332) in 50 μL media per well at cell densities between 500 and 1250 cells/well (Table 1) and allowed to incubate at 37 degrees, 5% CO2 for 24 h. After 24 h one 384-well plate per cell line was prepared for cell counting by microscopy (see below) without receiving treatment (=‘baseline’). The other cell plates were treated by transferring 25 nL of the 2000× compound from drug master plates using an ATS acoustic liquid dispenser (ECD Biosystems) and resulting in a final 1× concentration. COMPOUND A was used over a final concentration range of 13 nM-10 μM, COMPOUND B was used over a final concentration range of 13 nM-10 μM, and COMPOUND C was used over a final concentration range of 27 nM-20 μM (7 1:3 dilution steps). In order to assess the effect of the triple combination all individual COMPOUNDS (A, B, C), all three pair wise combinations (A+B, A+C, B+C), and the triple combination (A+B+C) were tested in the same experiment. Pair wise combinations and the triple combination were tested at a fixed ratio of 1:1 (for drug pairs) and 1:1:1 (for the drug triple) at each dilution resulting in 7 combination conditions per treatment. […] After compound addition 50 nL of 2 mM CellEvent Caspase-3/7 Green Detection Reagent (ThermoFisher, Catalog number C10423) were added to one of the three replicates using the HP D300 Digital Dispenser (Tecan). Caspase 3/7 induction was measured as a proxy for apoptosis induced by the treatments. Cells were treated for 72 h to 96 h depending on their doubling time (Table 1), and Caspase 3/7 activation was measured every 24 h by microscopy using an InCell Analyzer 2000 (GE Healthcare) equipped with a 4× objective and FITC excitation/emission filters. At the end of the treatment cells were prepared for cell counting by microscopy. Cells were fixed and permeabilised for 45 minutes in 4% PFA (Electron Microscopy Sciences, Catalog number 15714), 0.12% TX-100 (Electron Microscopy Sciences, Catalog number 22140) in PBS (Boston Bioproducts, Catalog number BM-220). After washing cells three times with PBS their DNA was stained for 30 minutes with Hoechst 33342 (ThermoFisher, Catalog number H3570) at a final concentration of 4 μg/mL. Cells were washed three times with PBS and then plates were heat-sealed using a PlateLoc (Agilent Technologies) with aluminum seals (Agilent Technologies, Catalog number 06644-001) and stored at 4° C. until imaging. […]

COLO-205 = test: as above; details: Homo sapiens; COLO-205 (BRAF), 72 h treatment; 50% of cell counts relative to DMSO
Experimental: as §1, §2, §3, §4

COLO-320 = test: as above; details: Homo sapiens; COLO-320 (no driver mutation listed), 72 h treatment; 50% of cell counts relative to DMSO
Experimental: as §1, §2, §3, §4

HT-29 = test: as above; details: Homo sapiens; HT-29 (BRAF, PIK3CA), 72 h treatment; 50% of cell counts relative to DMSO
Experimental: as §1, §2, §3, §4

GP2d = test: as above; details: GP2d (KRAS, PIK3CA), 72 h treatment; 50% of cell counts relative to DMSO
Experimental: as §1, §2, §3, §4

LS411N = test: as above; details: Homo sapiens, LS-411N; LS411N (BRAF), 72 h treatment; 50% of cell counts relative to DMSO
Experimental: as §1, §2, §3, §4

LoVo = test: as above; details: Homo sapiens; LoVo (KRAS), 96 h treatment; 50% of cell counts relative to DMSO
Experimental: as §1, §2, §3, §4

SW837 = test: as above; details: Homo sapiens; SW837 (KRAS), 72 h treatment; 50% of cell counts relative to DMSO
Experimental: as §1, §2, §3, §4

LS-180 = test: as above; details: Homo sapiens, LS180; LS-180 (KRAS, PIK3CA), 72 h treatment; 50% of cell counts relative to DMSO
Experimental: as §1, §2, §3, §4

LIM2551 = test: as above; details: LIM2551 (BRAF, PIK3CA), 72 h treatment; 50% of cell counts relative to DMSO
Experimental: as §1, §2, §3, §4

SW480 = test: as above; details: Homo sapiens; SW480 (KRAS), 72 h treatment; 50% of cell counts relative to DMSO
Experimental: as §1, §2, §3, §4

NCI-H508 = test: as above; details: Homo sapiens; NCI-H508 (PIK3CA), 72 h treatment; 50% of cell counts relative to DMSO
Experimental: as §1, §2, §3, §4

HCT-116 = test: as above; details: Homo sapiens; HCT-116 (KRAS, PIK3CA), 72 h treatment; 50% of cell counts relative to DMSO
Experimental: as §1, §2, §3, §4

RKO = test: as above; details: Homo sapiens; RKO (BRAF, PIK3CA), 72 h treatment; 50% of cell counts relative to DMSO
Experimental: as §1, §2, §3, §4

DLD-1 = test: as above; details: Homo sapiens; DLD-1 (KRAS, PIK3CA), 72 h treatment; 50% of cell counts relative to DMSO
Experimental: as §1, §2, §3, §4

IC50 values across the cell lines (summary in words) [1]	IC50 (COLO-205)	IC50 (COLO-320)	IC50 (HT-29)	IC50 (LoVo)	IC50 (SW837)	IC50 (SW480)	IC50 (NCI-H508)	IC50 (HCT-116)	IC50 (DLD-1)	SMILES	IC50 (OUMS-23)	IC50 (GP2d)	IC50 (LS411N)	IC50 (LS-180)	IC50 (LIM2551)	IC50 (RKO)
mostly micromolar IC50 values										Cc1nc(NC(=O)N2CCC[C@H]2C(N)=O)sc1-c1ccnc(C(C)(C)C(F)(F)F)c1 [COMPOUND A, (S)-Pyrrolidine-1,2-dicarboxylic acid 2-amide 1-({4-methyl-5-[2-(2,2,2-trifluoro-1,1-dimethyl-ethyl)-pyridin-4-yl]-thiazol-2-yl}-amide)]						
mostly micromolar IC50 values										CN(C)C(=O)c1cc2cnc(Nc3ccc(N4CCNCC4)cn3)nc2n1C1CCCC1 [COMPOUND B, 7-Cyclopentyl-2-(5-piperazin-1-yl-pyridin-2-ylamino)-7H-pyrrolo[2,3-d]pyrimidine-6-carboxylic acid dimethylamide]						

SMILES	IC50 values across the cell lines (summary in words) [1]	IC50 (COLO-205)	IC50 (COLO-320)	IC50 (HT-29)	IC50 (LoVo)	IC50 (SW837)	IC50 (SW480)	IC50 (NCI-H508)	IC50 (HCT-116)	IC50 (DLD-1)	IC50 (OUMS-23)	IC50 (GP2d)	IC50 (LS411N)	IC50 (LS-180)	IC50 (LIM2551)	IC50 (RKO)
O=c1[nH]cc(F)c(=O)[nH]1 [COMPOUND C, 5-fluoro-2,4-(1H,3H) pyrimidinedione]	micromolar IC50s in all but one cell line (SW480)	0.6 µM	2.4 µM	7.4 µM	5.6 µM	7.7 µM	> 20 µM	3.3 µM	5.6 µM	6.6 µM	10.4 µM	3.2 µM	4.1 µM	14 µM	4.2 µM	2.1 µM
